Here are results for 9 compounds from ChEMBL document CHEMBL1201862, “PubChem BioAssay data set” (2004).

As usually defined, the AC50 is the midpoint of the concentration-response curve, whichever way the signal moves. By IC50 is commonly meant the concentration that gives 50% inhibition. The term EC50 denotes the concentration giving half of the maximal effect.

Structures are written as SMILES. Active and inactive are the calls of the source.

Test [1] is described as follows: A549 cell cytotoxicity, dose response, cytotoxicity control, plate reader, cherry-pick, antagonist series (AID 743412). It counts as functional, cell-based.
The nature of test [2]: cytotoxicity in HEK-293T NF-kB-Luc cells, dose response, cytotoxicity control for B/T-cell NF-kB inhibitor project, cell-based, uHTS hits (AID 489019).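 Also: IC50 reflects cytotoxicity as loss of cell viability.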 It counts as functional.
Test [3] can be described thus: HEK293 cell cytotoxicity, dose response, cytotoxicity control, plate reader, cherry-picked samples (AID 743446). The format is functional, cell-based.
Test [4] deals with Jurkat. Briefly: antigen receptor-induced NF-kB inhibitors, dose response, Jurkat, luciferase reporter, luminescence, B- and T-cell (AID 489004).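 Also: NF-kB luciferase reporter Jurkat cells stimulated with PMA plus ionomycin.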 It counts as functional, cell-based. Conditions: Homo sapiens. For orientation: A reporter such as luciferase makes a cellular process visible.
A short description of test [5]: off-target signal loss in HeLa-CEM21 co-culture – HeLa F-luc CTL cells, cherry-picked, counter-screen for HIV-1 Env fusion inhibitor project, dose response (AID 652040).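 Also: potency for signal decrease marking cytotoxic or nonspecific inhibition.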 The format is functional, cell-based. Background: The purpose of a counterscreen is to sort out artefacts and off-target activity.
A short description of test [6]: ZM109 Env clade C HIV-1 fusion inhibitors, dose response, HeLa effector, CEM target cells, luciferase, cherry-pick (AID 652058). It counts as functional, cell-based.
Test [7] can be described thus: MC4R antagonists, dose response, counter-screen for LGR2 antagonist project, cell-based, plate reader, cherry pick (AID 743444).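 Also: transfected HEK 293 cells stimulated with alpha-MSH peptide; potency of inhibitors of the alpha-MSH evoked signal.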 The format is functional.
Test [8] concerns the target T1, Heat shock factor protein 1 (Mus musculus, UniProt P38532).
T1 sequence (P38532 whole entry): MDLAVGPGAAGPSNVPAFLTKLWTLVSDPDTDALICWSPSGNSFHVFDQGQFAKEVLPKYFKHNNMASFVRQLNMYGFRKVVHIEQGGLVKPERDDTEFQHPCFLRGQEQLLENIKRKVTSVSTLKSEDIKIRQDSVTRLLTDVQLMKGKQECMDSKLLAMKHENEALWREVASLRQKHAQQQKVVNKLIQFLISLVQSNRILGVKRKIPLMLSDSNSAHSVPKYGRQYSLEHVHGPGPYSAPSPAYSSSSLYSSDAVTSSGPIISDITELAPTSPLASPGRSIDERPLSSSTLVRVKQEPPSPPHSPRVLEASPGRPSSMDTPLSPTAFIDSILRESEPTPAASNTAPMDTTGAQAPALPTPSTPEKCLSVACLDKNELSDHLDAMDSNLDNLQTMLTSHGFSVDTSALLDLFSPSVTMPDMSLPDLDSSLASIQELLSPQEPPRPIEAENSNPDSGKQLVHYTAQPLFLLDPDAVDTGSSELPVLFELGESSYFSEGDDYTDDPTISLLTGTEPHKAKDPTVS
Briefly: inhibition of MG132-induced HSE-luciferase signal, confirmation, cell-based, NIH3T3, luminescence, dose retest (AID 2382).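 Also: NIH3T3 fibroblasts with HSF1-driven luciferase reporter stressed by proteasome inhibitor MG132; luminescence from HSF1-driven luciferase expression after 8 hours of MG132 stress.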 The format is functional.

The nature of test [9]: inhibitors of HIV Env-driven cell fusion, dose response, cherry-pick (AID 652057). The format is functional, cell-based.
The target of test [10] is Paired box protein Pax-8 (Homo sapiens, UniProt Q06710). In words: inhibitors of PAX8-driven TPO luciferase reporter, dose response, RMG-I cells, cherry-pick (AID 687027).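 Also: luciferase reporter driven by Pax8 target thyroperoxidase promoter measured by SteadyGlo luminescence.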 It counts as functional, cell-based.
Sequence of Paired box protein Pax-8 (Q06710 whole entry, the tested form may be a part): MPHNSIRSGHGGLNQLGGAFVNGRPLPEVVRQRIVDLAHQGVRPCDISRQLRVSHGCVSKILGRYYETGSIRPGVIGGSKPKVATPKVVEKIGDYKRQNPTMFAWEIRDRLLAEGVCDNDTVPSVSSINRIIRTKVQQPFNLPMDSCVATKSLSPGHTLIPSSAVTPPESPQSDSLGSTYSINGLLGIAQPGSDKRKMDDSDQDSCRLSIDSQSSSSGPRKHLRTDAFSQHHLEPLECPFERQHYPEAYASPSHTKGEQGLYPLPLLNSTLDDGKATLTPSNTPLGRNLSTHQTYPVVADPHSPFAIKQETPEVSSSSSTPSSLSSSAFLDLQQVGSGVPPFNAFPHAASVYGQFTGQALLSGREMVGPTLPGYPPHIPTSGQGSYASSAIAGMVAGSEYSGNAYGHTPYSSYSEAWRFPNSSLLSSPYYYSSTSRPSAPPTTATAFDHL
A short description of test [11]: inhibitors of clade B AD8 Env fusion, dose response, cell-based, cherry-pick (AID 652062).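 Also: luciferase signal from cell-cell fusion driven by HIV-1 clade B AD8 Env; potency is for inhibitors of fusion seen as a drop in luminescence.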 It counts as functional.
Test [12] has as its target Heat shock protein HSP 90-alpha (Homo sapiens, UniProt P07900). In words: Luminescence-based dose response biochemical high throughput screening assay for inhibitors of the Heat Shock Protein 90 (HSP90). [Related pubchem assays: 1831 (Summary AID.), 1846 (Confirmation screen.), 1789 (Primary screen.)].
A short description of test [13]: LGR2 antagonists, dose response, cell-based, HEK293, CRE-luciferase reporter, cherry pick, set 2 (AID 743343).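 Also: transfected cells were stimulated with diluted bursicon conditioned medium after compound addition.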 The format is functional.
The target of test [14] is T2, Carboxy-terminal domain RNA polymerase II polypeptide A small phosphatase 1 (Homo sapiens, UniProt Q9GZU7).
T2 sequence (Q9GZU7 whole entry): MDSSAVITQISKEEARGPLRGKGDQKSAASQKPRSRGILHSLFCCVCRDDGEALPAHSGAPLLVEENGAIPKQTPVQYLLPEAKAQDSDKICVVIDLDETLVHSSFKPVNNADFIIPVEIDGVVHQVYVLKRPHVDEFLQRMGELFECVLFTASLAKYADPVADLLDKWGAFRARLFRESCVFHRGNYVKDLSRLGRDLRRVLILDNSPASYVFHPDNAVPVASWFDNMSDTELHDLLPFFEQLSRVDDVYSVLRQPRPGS
Briefly: inhibitors of CTDSP1, concentration-response testing, biochemical assay, absorbance-based, actives from ultra-high-throughput screening (AID 540297). The format is functional.

Test [15] addresses E3 ubiquitin-protein ligase Mdm2 (Homo sapiens, UniProt Q00987). In words: enhancers of MDM2-luciferase reporter signal, concentration-effect titration, project on inhibitors of MDM2 ubiquitin ligase, cellular assay, luminescent readout, 384-well plate format (AID 1394).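 Also: MDM2 E3 inhibitors raise luminescence so EC50 is for signal enhancement.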 The format is functional.
The nature of test [16]: inhibitors of Vif binding to APOBEC3G peptide, primary screen, biochemical, TR-FRET, GST-Vif 1-94, biotin-A3G peptide, dose response retest (AID 1117319).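 Also: TR-FRET signal of purified GST-Vif binding a biotinylated A3G peptide; inhibitors lower the FRET signal by blocking Vif and A3G binding.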 The format is functional.
In test [17] the target is Protein Tat (Human immunodeficiency virus type 1 group M subtype B (isolate HXB2)(HIV-1), UniProt P04608). It counts as functional.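 Also: tat binding to TAR RNA read out by fluorescence polarization.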
Sequence of Protein Tat (P04608 whole entry): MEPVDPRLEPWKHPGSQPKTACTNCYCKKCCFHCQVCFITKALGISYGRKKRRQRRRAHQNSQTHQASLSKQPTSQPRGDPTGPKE
Test [18] addresses T3, Coagulation factor XII (Homo sapiens, UniProt P00748).
T3 sequence (P00748 whole entry): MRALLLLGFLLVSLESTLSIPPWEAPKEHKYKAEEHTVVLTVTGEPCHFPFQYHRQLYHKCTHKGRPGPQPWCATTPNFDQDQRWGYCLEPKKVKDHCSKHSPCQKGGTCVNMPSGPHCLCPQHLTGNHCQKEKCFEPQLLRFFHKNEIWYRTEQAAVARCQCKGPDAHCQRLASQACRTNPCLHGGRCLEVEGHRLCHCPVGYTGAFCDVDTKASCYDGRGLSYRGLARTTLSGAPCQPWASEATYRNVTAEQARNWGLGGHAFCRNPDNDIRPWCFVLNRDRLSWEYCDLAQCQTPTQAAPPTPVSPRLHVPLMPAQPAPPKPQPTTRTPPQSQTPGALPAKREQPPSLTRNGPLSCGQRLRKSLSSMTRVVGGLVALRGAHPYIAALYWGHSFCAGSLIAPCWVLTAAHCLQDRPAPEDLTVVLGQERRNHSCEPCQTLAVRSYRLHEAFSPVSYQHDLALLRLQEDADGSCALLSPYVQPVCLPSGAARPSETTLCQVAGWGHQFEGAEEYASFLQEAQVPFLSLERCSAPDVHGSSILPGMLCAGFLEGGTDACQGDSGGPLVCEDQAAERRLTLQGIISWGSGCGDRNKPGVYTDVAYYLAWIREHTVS
It counts as functional.

The target of test [19] is Mitogen-activated protein kinase 10 (Homo sapiens, UniProt P53779). Briefly: Dose response biochemical screening assay for inhibitors of c-Jun N-Terminal Kinase 3 (JNK3). [Related pubchem assays: 746 ].
Sequence of Mitogen-activated protein kinase 10 (P53779 whole entry): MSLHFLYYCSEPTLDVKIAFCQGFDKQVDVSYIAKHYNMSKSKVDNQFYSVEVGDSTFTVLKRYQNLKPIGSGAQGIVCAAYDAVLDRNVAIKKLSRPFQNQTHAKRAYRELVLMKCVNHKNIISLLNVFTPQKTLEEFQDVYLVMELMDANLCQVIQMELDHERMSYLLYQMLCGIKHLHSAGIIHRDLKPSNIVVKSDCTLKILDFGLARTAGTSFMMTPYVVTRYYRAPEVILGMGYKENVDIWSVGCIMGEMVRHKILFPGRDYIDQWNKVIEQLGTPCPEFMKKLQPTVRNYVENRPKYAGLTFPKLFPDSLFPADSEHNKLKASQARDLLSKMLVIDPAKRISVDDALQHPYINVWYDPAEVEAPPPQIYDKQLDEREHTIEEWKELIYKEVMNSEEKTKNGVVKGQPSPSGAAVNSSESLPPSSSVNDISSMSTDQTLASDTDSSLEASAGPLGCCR
The target of test [20] is T4, Tyrosine-protein phosphatase non-receptor type 7 (Homo sapiens, UniProt P35236).
T4 sequence (P35236 whole entry): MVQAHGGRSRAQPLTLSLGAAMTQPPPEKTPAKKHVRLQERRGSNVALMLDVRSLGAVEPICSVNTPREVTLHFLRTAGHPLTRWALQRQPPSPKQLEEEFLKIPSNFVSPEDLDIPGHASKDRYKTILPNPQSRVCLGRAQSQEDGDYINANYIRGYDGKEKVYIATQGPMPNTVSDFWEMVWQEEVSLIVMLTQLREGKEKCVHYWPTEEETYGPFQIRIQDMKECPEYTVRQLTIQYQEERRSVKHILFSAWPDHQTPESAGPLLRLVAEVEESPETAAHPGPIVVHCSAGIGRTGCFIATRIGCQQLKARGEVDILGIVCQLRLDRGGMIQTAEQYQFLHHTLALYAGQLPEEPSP
In words: inhibitors of human HePTP phosphatase, […], biochemical, absorbance, leukemia target (AID 521). The format is functional.

In test [21] the target is Nonstructural protein 1 (Influenza A virus, UniProt Q194T2). It counts as functional, Influenza A virus (A/California/07/2009(H1N1)).
Sequence of Nonstructural protein 1 (Q194T2 whole entry): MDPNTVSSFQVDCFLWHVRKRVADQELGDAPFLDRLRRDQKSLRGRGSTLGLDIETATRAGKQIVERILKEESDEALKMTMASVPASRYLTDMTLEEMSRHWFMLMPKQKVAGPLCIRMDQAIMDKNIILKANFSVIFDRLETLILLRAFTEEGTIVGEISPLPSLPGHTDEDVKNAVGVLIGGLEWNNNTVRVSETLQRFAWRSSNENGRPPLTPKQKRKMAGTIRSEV
For test [22], the target named is T5, Mannose-6-phosphate isomerase (Homo sapiens, UniProt P34949).
T5 sequence (P34949 whole entry): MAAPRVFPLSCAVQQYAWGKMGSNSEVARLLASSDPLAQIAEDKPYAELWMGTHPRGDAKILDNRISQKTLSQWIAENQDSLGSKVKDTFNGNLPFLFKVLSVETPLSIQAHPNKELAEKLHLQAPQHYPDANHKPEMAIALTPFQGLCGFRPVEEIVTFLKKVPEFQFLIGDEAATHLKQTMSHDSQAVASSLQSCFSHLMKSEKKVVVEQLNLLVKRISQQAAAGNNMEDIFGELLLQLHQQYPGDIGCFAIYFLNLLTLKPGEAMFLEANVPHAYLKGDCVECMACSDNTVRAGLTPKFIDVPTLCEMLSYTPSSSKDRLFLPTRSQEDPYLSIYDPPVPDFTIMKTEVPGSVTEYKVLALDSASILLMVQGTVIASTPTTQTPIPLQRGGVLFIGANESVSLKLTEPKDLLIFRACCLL
In words: human PMI inhibitors, high substrate, primary screen, biochemical, fluorescence intensity, high mannose 6-phosphate (AID 1220).

A short description of test [23]: P. falciparum Dd2 growth inhibitors, dose response, SYBR Green, dry powder samples, set 9 (AID 1159568). It counts as functional, cell-based.
Test [24] in a line: Jurkat T cell cytotoxicity, dose response, cytotoxicity control for P. falciparum gametocyte viability project, luminescence (AID 1117277).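 Also: potency reflects loss of cellular ATP meaning fewer viable cells.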 The format is functional, cell-based.
Test [25] can be described thus: P. falciparum late gametocyte killing, dose response, luminescence (AID 1117278).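 Also: gametocytes exposed to compound for 24 hours.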 It counts as functional, cell-based.
The target in test [26] is Bifunctional protein GlmU (Mycobacterium tuberculosis, UniProt P9WMN3). In words: Inhibitors of Mycobacterial Glucosamine-1-phosphate acetyl transferase (GlmU). Secondary screen. Further details: species or system Mycobacterium tuberculosis H37Rv.
Sequence of Bifunctional protein GlmU (P9WMN3 whole entry): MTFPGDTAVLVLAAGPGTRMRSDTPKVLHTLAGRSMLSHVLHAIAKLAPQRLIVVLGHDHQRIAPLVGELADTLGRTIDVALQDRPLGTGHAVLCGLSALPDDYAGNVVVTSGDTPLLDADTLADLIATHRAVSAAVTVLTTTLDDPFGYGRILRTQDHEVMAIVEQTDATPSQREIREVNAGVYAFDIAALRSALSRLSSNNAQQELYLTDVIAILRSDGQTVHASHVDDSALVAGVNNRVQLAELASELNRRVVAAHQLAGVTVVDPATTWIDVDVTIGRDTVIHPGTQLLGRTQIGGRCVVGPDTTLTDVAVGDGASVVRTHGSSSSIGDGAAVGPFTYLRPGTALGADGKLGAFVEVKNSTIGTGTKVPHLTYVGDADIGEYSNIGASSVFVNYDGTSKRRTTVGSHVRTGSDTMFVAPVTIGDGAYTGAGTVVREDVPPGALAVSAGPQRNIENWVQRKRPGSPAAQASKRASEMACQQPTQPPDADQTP
In test [27] the target is T6, SUMO-activating enzyme (Homo sapiens, UniProt Q9UBT2). Briefly: inhibitors of in vitro SUMOylation cascade, primary screen, biochemical, HTRF, uHTS (AID 2006). The format is protein-complex assay. (Time-resolved FRET reads energy transfer from a long-lived donor to a nearby acceptor.)
T6 sequence (Q9UBE0 whole entry): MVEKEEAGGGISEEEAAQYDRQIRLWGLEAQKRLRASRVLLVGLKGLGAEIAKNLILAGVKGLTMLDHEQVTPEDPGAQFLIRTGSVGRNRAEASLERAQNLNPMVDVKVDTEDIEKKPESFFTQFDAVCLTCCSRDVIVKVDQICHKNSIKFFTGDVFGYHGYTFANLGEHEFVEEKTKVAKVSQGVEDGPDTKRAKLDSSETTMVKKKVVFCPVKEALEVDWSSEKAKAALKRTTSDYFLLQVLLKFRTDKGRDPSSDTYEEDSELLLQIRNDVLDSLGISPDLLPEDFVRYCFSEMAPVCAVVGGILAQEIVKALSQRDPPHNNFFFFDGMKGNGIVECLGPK
T6 sequence (Q9UBT2 whole entry): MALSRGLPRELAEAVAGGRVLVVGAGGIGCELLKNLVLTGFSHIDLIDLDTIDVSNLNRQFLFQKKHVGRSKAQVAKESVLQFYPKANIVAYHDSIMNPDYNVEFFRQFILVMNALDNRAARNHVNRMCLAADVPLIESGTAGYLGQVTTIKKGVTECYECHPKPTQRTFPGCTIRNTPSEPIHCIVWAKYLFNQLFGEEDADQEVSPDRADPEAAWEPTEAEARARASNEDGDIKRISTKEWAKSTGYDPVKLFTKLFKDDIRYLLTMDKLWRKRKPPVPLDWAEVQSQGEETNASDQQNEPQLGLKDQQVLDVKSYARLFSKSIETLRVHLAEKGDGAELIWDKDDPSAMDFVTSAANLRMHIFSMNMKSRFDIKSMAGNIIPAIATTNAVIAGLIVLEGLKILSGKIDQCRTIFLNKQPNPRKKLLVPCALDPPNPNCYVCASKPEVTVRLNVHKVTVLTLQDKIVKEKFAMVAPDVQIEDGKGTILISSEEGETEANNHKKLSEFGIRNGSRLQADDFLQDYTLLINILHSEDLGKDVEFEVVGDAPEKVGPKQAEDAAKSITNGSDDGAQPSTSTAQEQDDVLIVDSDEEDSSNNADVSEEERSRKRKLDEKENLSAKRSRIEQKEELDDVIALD
The target of test [28] is T6, SUMO-activating enzyme. Briefly: SUMOylation inhibitor hit validation, confirmation, SUMOylation inhibitor project, biochemical, AlphaScreen (AID 2018). The format is functional.

Sequence of E3 ubiquitin-protein ligase Mdm2 (Q00987 whole entry): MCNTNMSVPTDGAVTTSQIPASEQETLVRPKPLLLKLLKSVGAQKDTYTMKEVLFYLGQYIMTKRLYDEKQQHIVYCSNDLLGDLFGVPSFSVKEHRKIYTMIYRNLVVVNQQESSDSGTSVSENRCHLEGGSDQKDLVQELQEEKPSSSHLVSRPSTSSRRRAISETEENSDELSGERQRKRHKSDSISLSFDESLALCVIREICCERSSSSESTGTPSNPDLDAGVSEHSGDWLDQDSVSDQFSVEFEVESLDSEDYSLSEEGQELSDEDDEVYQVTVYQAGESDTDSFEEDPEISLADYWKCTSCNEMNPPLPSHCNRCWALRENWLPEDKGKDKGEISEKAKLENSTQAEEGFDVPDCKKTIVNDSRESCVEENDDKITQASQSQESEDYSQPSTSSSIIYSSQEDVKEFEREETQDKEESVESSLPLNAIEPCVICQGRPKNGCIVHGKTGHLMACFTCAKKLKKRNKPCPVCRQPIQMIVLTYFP

With `O=C(CN1C(=O)c2ccccc2S1(=O)=O)c1ccc2c(c1)OCCO2`, the AC50 was 22.9 µM (active) in [1]; > 52 µM (inactive) in test [3]; 0.556 µM (active) in test [5]; 1.08 µM (active) in test [6]; 0.206 µM (active) in test [7]; 0.339 µM (active) in [9]. The AC50 in [10] is 1.64 µM (active); in test [11], < 0.26 µM (active); in test [13] it was 0.126 µM (active). The IC50 in test [2] is > 80 µM (inactive); in test [4], 0.17 µM (active); in test [12], 1.39 µM (active). Further, the EC50 in [8] was 0.418 µM (active).
For the compound `O=C1CCN(Cc2ccccc2)S(=O)(=O)c2ccccc21`, the IC50 in test [14] was 39.3 µM (active). Also, in test [15], the EC50 was 3.06 µM (not active).
For `CCOC(=O)c1cc(NC(=O)N2CCCc3ccccc32)c(C)nc1C`, the IC50 in test [16] and in test [17] was > 100 µM (active) throughout.
Take `NC(=O)c1c(NC(=O)C2CCCO2)sc2c1CCC2` (stereo not drawn): the IC50 in test [18] was > 50 µM (inactive); in test [19], 42.5 µM (not active).
Consider `CC(=O)Oc1oc(-c2ccccc2)nc1/C=N/c1ccccn1`, for which, in test [20], the IC50 is listed as > 100 µM (not active).
As to `Nc1ccccc1NC1CCCCC1`, the IC50 in [21] was 64.8 µM (active); in test [22] it was > 50 µM (not active).
Regarding `C[C@H](CO)N1C[C@H](C)[C@@H](CN(C)C(=O)Nc2ccc(C(F)(F)F)cc2)Oc2c(NC(=O)c3ccc(-c4nccs4)cc3)cccc2C1=O`, the half-maximal activity concentration (AC50) in test [23] is 6.41 µM (active).
`COCCNC(=O)c1ccc2c(c1)CCN2S(C)(=O)=O`: the IC50 was > 83.3 µM (inactive) in [24] and > 109 µM (inactive) in test [25].
For `N#C/C(=C/c1ccc(-c2cc(C(=O)O)cc(C(=O)O)c2)o1)c1nc2ccccc2s1`, the IC50 in test [26] is 19.1 µM (active); in test [27], 15.9 µM (active); in [28], 2.81 µM (active).
